Patent US8450355B2, “Compounds for the treatment of inflammatory diseases” (Merck Sharp & Dohme Corp., priority 2008, dated 2013)
Where two headings read alike, the source gives them in different places.

Columns and labels:
[1] = system: TNF-α production from human whole blood; assay: Inhibition of TNF-α production from human whole blood (hWBA); type: cell-based; conditions: human whole blood diluted 1:1, LPS stimulation, 3.5 h, TNF-α by ELISA
Method: Assay for Inhibition of TNF-α Production from Human Whole Blood (hWBA)
Human whole blood was diluted 1:1 with serum free medium (RPMI, L-glutamine, Pen-Strep, HEPES) and incubated with a test compound in a final volume of 360 μL for 1 h at 37° C. Forty microliters of LPS (10 μg/mL) was then added. Supernatant was collected after 3.5 h incubation and the concentration of TNF-α was determined by ELISA (R&D Systems). The concentration of the test compound which inhibits 50% of the amount of TNF-α from the control untreated control was determined.

[2] = Area under the curve determination of plasma levels in rats (rapid rat AUC); type: in vivo; conditions: oral, 10 mg/kg, blood 0.5-6 h post-dosing, read-out: RR AUC
Method: Area Under the Curve Determinations of Plasma Levels in Rats (rrAUC)
To gain insight into the pharmacokinetic properties of the compounds of formula (I), plasma levels of the compounds in rats were determined according to the protocol described in Korfmacher, W. A.; Cox, K. A.; Ng, K. J.; Veals, J.; Hsieh, Y.; Wainhaus, S.; Broske, L.; Prelusky, D.; Nomeir, A.; White, R. E. Rapid Commun. Mass Spectrom, 2001, 15, 335, Briefly, rats, after an overnight fast, were dosed orally with the test compound at a dose of 10 mg/kg in a 5 mL/kg dose volume. Blood was collected at 0.5, 1, 2, 3, 4, and 6 h post-dosing. Mass spectrometry using high performance liquid chromatography was used to identify and measure the concentrations of the test compounds in the plasma at the various time points. The parent ion of each test compound was used to identify and quantitate the compounds in plasma.

SMILES | IC50 ([1]; Table A) [nM] | IC50 ([1]; Table B) [nM] | further results
COc1ccc2c(c1)C(=O)N(C[C@@](N)(C(=O)O)c1cc3cnccc3o1)C2 [Compound 1120A] | > 10000 | – | –
COc1ccc2c(c1)C(=O)N(C[C@@](O)(C(=O)O)c1cc3cnccc3[nH]1)C2 [Compound 1120B] | > 10000 | – | –
COc1c(F)cc2c(c1F)C(=O)N(CC1(C#Cc3ccc(C4(CN)NC(=O)NC4=O)cc3)NC(=O)NC1=O)C2 (centres unmarked) [Compound 1150] | > 10000 | – | –
COc1c(F)cc2c(c1F)C(=O)N(CC1(c3cc4cnccc4o3)NC(=O)NC1=O)C2 (centres unmarked) [Compound 1165] | > 10000 | – | –
COc1c(F)cc2c(c1F)C(=O)N(CC1(c3cc4ncccc4o3)NC(=O)NC1=O)C2 (centres unmarked) [Compound 1170] | > 10000 | – | –
COc1c(F)cc2c(c1F)C(=O)N(C[C@@]1(C#Cc3ccc(C(N)=O)cc3)NC(=O)NC1=O)C2 [Compound 1180] | 1430 | – | –
COc1c(F)cc2c(c1F)C(=O)N(CC1(c3cc4nc(N5CCC(N(C)C)CC5)ccc4o3)NC(=O)NC1=O)C2 (centres unmarked) [Compound 1190] | > 10000 | – | –
COc1ccc2c(c1)C(=O)N(C[C@@]1(c3cc4nc(C(=N)NO)ccc4o3)NC(=O)NC1=O)C2 [Compound 1500] | 640 | – | –
CCN1CCN(C(=N)c2ccc3oc([C@]4(CN5Cc6ccc(OC)cc6C5=O)NC(=O)NC4=O)cc3n2)CC1 [Compound 1501] | 1890 | – | –
COCc1cc2c3c(ccc2o1)CN(C[C@@]1(c2cc4ncccc4o2)NC(=O)NC1=O)C3=O [Compound 1702] | > 10000 | – | –
CCN1CCCN(c2ccc(O)c(CC(=O)[C@]3(CN4Cc5ccc(OC)c(F)c5C4=O)NC(=O)NC3=O)n2)CC1 [Compound 1707] | 1570 | – | –
COc1ccc2c(c1)C(=O)N(C[C@@]1(c3cc4nc(C(=N)N)ccc4o3)NC(=O)NC1=O)C2 [Compound 2200] | – | 307 | –
COc1c(Cl)cc2c(c1Cl)C(=O)N(C[C@@]1(c3cc4cnccc4o3)NC(=O)NC1=O)C2 [Compound 2201] | – | ≥ 10000 | –
COc1ccc2c(c1)CCN(C[C@@]1(c3cc4c5c(ccc4o3)C3(CC5)NC(=O)NC3=O)NC(=O)NC1=O)C2=O (some centres unmarked) [Compound 2203] | – | 3560 | –
COc1ccc2c(c1)C(=O)N(C[C@@]1(c3cc4cc(/C(=N\O)N(C)CCN(C)C)ccc4o3)NC(=O)NC1=O)C2 [Compound 2206] | – | 384 | –
CCN(CC)CCN(C)/C(=N/O)c1ccc2oc([C@]3(CN4Cc5ccc(OC)cc5C4=O)NC(=O)NC3=O)cc2c1 [Compound 2207] | – | 308 | –
COc1ccc2c(c1)C(=O)N(C[C@@]1(c3cc4cc(NS(N)(=O)=O)ccc4o3)NC(=O)NC1=O)C2 [Compound 2209] | – | 315 | –
COc1ccc2c(c1)C(=O)N(C[C@@]1(c3cc4c5c(ccc4o3)C3(CC5)NC(=O)NC3=O)NC(=O)NC1=O)C2 (some centres unmarked) [Compound 2210] | – | 187 | AUC ([2]; Table B): 0.321 µM·h
COc1ccc2c(c1)C(=O)N(C[C@@]1(c3cc4ccc5c(c4o3)CCC53CNC(=O)N3)NC(=O)NC1=O)C2 (some centres unmarked) [Compound 2215] | – | 628 | –
COc1ccc2c(c1F)C(=O)N(C[C@@]1(c3cc4c5c(ccc4o3)C3(CC5)NC(=O)NC3=O)NC(=O)NC1=O)C2 (some centres unmarked) [Compound 2216] | – | 145 | AUC ([2]; Table B): 1.6 µM·h
COc1ccc2c(c1)CCN(C[C@@]1(c3cc4nc(-c5cn[nH]c5)ccc4o3)NC(=O)NC1=O)C2=O [Compound 2218] | – | 284 | –
CCCN(C)C(=NO)c1ccc(C#C[C@]2(CN3Cc4ccc(OC)cc4C3=O)NC(=O)NC2=O)cc1 [Compound 2224] | – | 239 | –
COc1ccc2c(c1)C(=O)N(C[C@@]1(C#Cc3ccc(C(=NO)N(C)CCN(C)C)cc3)NC(=O)NC1=O)C2 [Compound 2228] | – | 91 | –
CCN(CC)CCN(C)C(=NO)c1ccc(C#C[C@]2(CN3Cc4ccc(OC)cc4C3=O)NC(=O)NC2=O)cc1 [Compound 2229] | – | 96 | –
COc1ccc2c(c1)C(=O)N(C[C@@]1(C#Cc3ccc(C(C(=O)O)N4CCCN(C(=O)OC(C)(C)C)CC4)cc3)NC(=O)NC1=O)C2 (some centres unmarked) [Compound 2238] | – | 1020 | –
COc1ccc2c(c1)C(=O)N(C[C@@]1(C#Cc3ccc(NC(=S)NCCN4CCOCC4)cc3)NC(=O)NC1=O)C2 [Compound 2239] | – | 267 | –

Now from value to molecule, other results behind:

IC50 ([1]; Table A) [nM] | IC50 ([1]; Table B) [nM] | SMILES | further results
7140 | – | COc1c(F)cc2c(c1F)C(=O)N(C[C@@]1(c3cc4cnccc4o3)NC(=O)NC1=O)C2 [Compound 1160] | –
7120 | – | COc1c(F)cc2c(c1F)C(=O)N(C[C@@]1(c3cc4ncccc4o3)NC(=O)NC1=O)C2 [Compound 1175] | –
3100 | – | COC(=O)[C@@](CN1Cc2ccc(OC)c(F)c2C1=O)(NC(N)=O)c1cc2nc(Cl)c(F)cc2o1 [Compound 1304] | AUC ([2]; Table A): 0.113 µM·h
1820 | – | COc1ccc2c(c1)C(=O)N(C[C@@]1(c3cc4nc(C(=N)N5CCCN(C)CC5)ccc4o3)NC(=O)NC1=O)C2 [Compound 1502] | –
501 | – | Cc1cc2cc3c(c(F)c2o1)C(=O)N(CC1(c2cc4nc(-c5cn[nH]c5)ccc4o2)NC(=O)NC1=O)C3 (centres unmarked) [Compound 1700] | –
> 10000 | – | Cc1cc2c3c(ccc2o1)CN(C[C@@]1(c2cc4ncccc4o2)NC(=O)NC1=O)C3=O [Compound 1701] | –
> 10000 | – | O=C1NC(=O)[C@](CN2Cc3ccc4oc(Cc5ccccc5)cc4c3C2=O)(c2cc3ncccc3o2)N1 [Compound 1703] | –
> 10000 | – | O=C1NC(=O)[C@](CN2Cc3ccc4oc(C5CC5)cc4c3C2=O)(c2cc3ncccc3o2)N1 [Compound 1704] | –
292 | – | COc1ccc2c(c1)C(=O)N(C[C@@]1(C(=O)Cc3nc(Nc4cn[nH]c4)ccc3O)NC(=O)NC1=O)C2 [Compound 1705] | –
– | 281 | CCN(CC)CCN(CC)/C(=N/O)c1ccc2oc([C@]3(CN4Cc5ccc(OC)cc5C4=O)NC(=O)NC3=O)cc2c1 [Compound 2208] | –
– | 570 | COc1ccc2c(c1)C(=O)N(C[C@@]1(c3cc4c5c(ccc4o3)C3(CCC5)NC(=O)NC3=O)NC(=O)NC1=O)C2 (some centres unmarked) [Compound 2211] | AUC ([2]; Table B): 0.055 µM·h
– | 335 | COc1ccc2c(c1)C(=O)N(C[C@@]1(c3cc4c5c(ccc4o3)C3(CC5)CNC(=O)N3)NC(=O)NC1=O)C2 (some centres unmarked) [Compound 2213] | –
– | 1010 | COc1ccc2c(c1)C(=O)N(C[C@@]1(c3cc4ccc5c(c4o3)CCC53NC(=O)NC3=O)NC(=O)NC1=O)C2 (some centres unmarked) [Compound 2214] | AUC ([2]; Table B): 0.128 µM·h
– | 1940 | COc1ccc2c(c1)CCN(C[C@@]1(c3cc4c5c(ccc4o3)CNC5=O)NC(=O)NC1=O)C2=O [Compound 2217] | –
– | 1370 | COc1ccc2c(c1)CCN(C[C@@]1(c3cc4cnccc4o3)NC(=O)NC1=O)C2=O [Compound 2219] | –
– | 1000 | COc1ccc2c(c1)C(=O)N(C[C@@]1(c3cc4c5c(ccc4o3)CCC53NC(=O)NC3=O)NC(=O)NC1=O)C2 (some centres unmarked) [Compound 2223] | –
– | 813 | COc1ccc2c(c1)C(=O)N(C[C@@]1(C#Cc3ccc(C(=NO)N(C)C)s3)NC(=O)NC1=O)C2 [Compound 2227] | –
– | 434 | COc1ccc2c(c1)C(=O)N(C[C@@]1(C#Cc3ccc(C(=O)NS(N)(=O)=O)cc3)NC(=O)NC1=O)C2 [Compound 2230] | –
– | 152 | COc1ccc2c(c1)C(=O)N(C[C@@]1(C#Cc3ccc(C(=NO)N(C)C)cc3)NC(=O)NC1=O)C2 [Compound 2231] | –
– | 205 | CCN(CC)C(=NO)c1ccc(C#C[C@]2(CN3Cc4ccc(OC)cc4C3=O)NC(=O)NC2=O)cc1 [Compound 2234] | –
– | 1180 | COc1ccc2c(c1)C(=O)N(C[C@@]1(C#Cc3ccc(C(C(N)=O)N4CCCN(C(=O)OC(C)(C)C)CC4)cc3)NC(=O)NC1=O)C2 (some centres unmarked) [Compound 2237] | –
– | 1270 | COc1ccc2c(c1)C(=O)N(C[C@@]1(C(=O)Cc3nc(NC4CCN(C)CC4)ccc3O)NC(=O)NC1=O)C2 [Compound 2241] | –
